By TGI is commonly meant the concentration at which net growth stops. Low readings indicate greater sensitivity of the cells, high ones lower sensitivity of the cells.

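Exposure lasted 48 hours, with cells grown in 96-well plates and compounds tested at five concentrations. The concentration for full growth arrest is given as TGI.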

Our source for the TGI values is PubChem BioAssay (NCI).

Test systems include A549 NSCLC; HCC-2998 colon; HCT-116 colon; HL-60(TB) leukemia; HOP-18 NSCLC; HT29 colon; IGROV1 ovarian; LOX IMVI melanoma; MALME-3M melanoma; MOLT-4 leukemia; OVCAR-3 ovarian; OVCAR-5 ovarian; OVCAR-8 ovarian; SF-539 CNS; SK-MEL-5 melanoma; SK-OV-3 ovarian; SNB-75 CNS; U251 CNS; A498 renal; MCF7 breast.
What all share (assay): DTP human tumour cell line panel, 48 h

On to `CC1=CP(=O)(OC(C)C)C=C(C)C1=C(Cl)Cl` (configuration not stated), for which the TGI in the experiment on A549 NSCLC is 97.8 µM; in the experiment on HCC-2998 colon, over 100 µM; in the experiment on HCT-116 colon it was 70.5 µM; in the experiment on HL-60(TB) leukemia, over 100 µM; in the experiment with HOP-18 NSCLC, over 100 µM; in the experiment on HT29 colon, over 100 µM. Besides, the TGI in the experiment with IGROV1 ovarian, in the experiment with LOX IMVI melanoma, with MALME-3M melanoma, in the experiment on MOLT-4 leukemia, in the experiment with OVCAR-3 ovarian and with OVCAR-5 ovarian was over 100 µM each time. The TGI was over 100 µM with OVCAR-8 ovarian; over 100 µM with SF-539 CNS; over 100 µM in the experiment with SK-MEL-5 melanoma; 33.4 µM in the experiment on SK-OV-3 ovarian; over 100 µM in the experiment on SNB-75 CNS; over 100 µM with U251 CNS.
For the compound `Cc1cc(N(CCC#N)CCC#N)ccc1/C(Sc1ccccc1)=C(\NC(=O)/C=C/c1ccccc1)C(=O)Sc1ccccc1`, the TGI turned out to be 16.5 µM in the experiment on A498 renal; 16 µM in the experiment with A549 NSCLC; 23.9 µM in the experiment with HCC-2998 colon; 9.79 µM in the experiment with HCT-116 colon; 5.08 µM in the experiment on HL-60(TB) leukemia; 51.1 µM with HOP-18 NSCLC. Further, the TGI in the experiment on HT29 colon stood at 11.8 µM; with IGROV1 ovarian, 2.78 µM; with LOX IMVI melanoma, 2.52 µM; with MALME-3M melanoma, 25 µM; with MOLT-4 leukemia, 8.27 µM; in the experiment with OVCAR-3 ovarian it was 15.8 µM. For the same compound, the TGI is 16.3 µM in the experiment with OVCAR-5 ovarian; 18.6 µM in the experiment with OVCAR-8 ovarian; 3.44 µM in the experiment on SF-539 CNS; 16.3 µM in the experiment with SK-MEL-5 melanoma; 19.8 µM with SK-OV-3 ovarian; 17.7 µM in the experiment with SNB-75 CNS. This compound returned a TGI in the experiment with U251 CNS of 5.83 µM.
`[N-]=[N+]=NC1(Cc2ccccc2)C(=O)Nc2ccccc2C1=O` (configuration not stated): the TGI with A498 renal, in the experiment on A549 NSCLC, with HCC-2998 colon, in the experiment with HCT-116 colon, in the experiment with HL-60(TB) leukemia and with HOP-18 NSCLC was over 100 µM in each case. Moreover, the TGI in the experiment on HT29 colon, in the experiment on IGROV1 ovarian, in the experiment with LOX IMVI melanoma, in the experiment with MALME-3M melanoma, in the experiment with MOLT-4 leukemia and in the experiment with OVCAR-3 ovarian was over 100 µM in each case. The TGI in the experiment with OVCAR-5 ovarian, in the experiment with OVCAR-8 ovarian, with SF-539 CNS, in the experiment on SK-MEL-5 melanoma, in the experiment on SK-OV-3 ovarian and with SNB-75 CNS was over 100 µM throughout. The compound further displayed a TGI with U251 CNS of over 100 µM.
As to `Cc1c(N)c(C#N)c2n(C)c3ncccc3n2c1=O`, the TGI in the experiment on A549 NSCLC, in the experiment with HCC-2998 colon, in the experiment with HCT-116 colon, in the experiment with HL-60(TB) leukemia, in the experiment on HOP-18 NSCLC and in the experiment with HT29 colon was over 100 µM throughout. Also, the TGI in the experiment on LOX IMVI melanoma, with MALME-3M melanoma, in the experiment on MOLT-4 leukemia, with OVCAR-3 ovarian, with OVCAR-8 ovarian and in the experiment on SF-539 CNS was over 100 µM each time. For the same compound, the TGI in the experiment with SK-MEL-5 melanoma, in the experiment on SK-OV-3 ovarian, in the experiment on SNB-75 CNS and in the experiment on U251 CNS was over 100 µM throughout.
For the compound `C=C(CN(C)C)C(=O)c1ccccc1`, the TGI in the experiment on A498 renal was 41.7 µM; with A549 NSCLC it was 53 µM; with HCC-2998 colon, 32.7 µM; in the experiment with HCT-116 colon, 16.7 µM; in the experiment on HL-60(TB) leukemia, over 20.8 µM; in the experiment with HOP-18 NSCLC it was 14.8 µM. Moreover, the concentration for total growth inhibition (TGI) with HT29 colon worked out at 24.2 µM; with IGROV1 ovarian, 36.3 µM; in the experiment on LOX IMVI melanoma, 15.4 µM; in the experiment on MALME-3M melanoma, 11.1 µM; in the experiment with MOLT-4 leukemia, 15.3 µM; with OVCAR-3 ovarian, 9.9 µM. Besides, the TGI worked out at 30.4 µM in the experiment on OVCAR-5 ovarian; 44.6 µM in the experiment with OVCAR-8 ovarian; 27.1 µM in the experiment on SF-539 CNS; 28.8 µM with SK-MEL-5 melanoma; 41 µM in the experiment with SK-OV-3 ovarian; 39.7 µM in the experiment with SNB-75 CNS. For the same compound, the concentration for total growth inhibition (TGI) in the experiment with U251 CNS stood at 35.1 µM.
With `CCN(CC)CC(C(C)=O)C(c1ccccc1)c1c(O)c2ccccc2oc1=O` (configuration not stated), the concentration for total growth inhibition (TGI) in the experiment on A498 renal, in the experiment with A549 NSCLC, in the experiment on HCC-2998 colon, in the experiment on HCT-116 colon, in the experiment on HL-60(TB) leukemia and in the experiment on HOP-18 NSCLC was over 100 µM in each case. For the same compound, the TGI in the experiment with HT29 colon, in the experiment on IGROV1 ovarian, with LOX IMVI melanoma, in the experiment with MALME-3M melanoma, in the experiment with MOLT-4 leukemia and in the experiment on OVCAR-3 ovarian was over 100 µM in each case. In addition, the concentration for total growth inhibition (TGI) in the experiment with OVCAR-5 ovarian, in the experiment on OVCAR-8 ovarian, in the experiment on SF-539 CNS, in the experiment on SK-MEL-5 melanoma, in the experiment with SK-OV-3 ovarian and in the experiment on SNB-75 CNS was over 100 µM throughout. Besides, the TGI with U251 CNS was over 100 µM.
With `C=CC(=O)C#Cc1cnc(OC)nc1OC`, the TGI in the experiment with A498 renal is over 69.1 µM; in the experiment with A549 NSCLC, over 100 µM; in the experiment on HCC-2998 colon, 42.2 µM; in the experiment with HCT-116 colon, 26.1 µM; with HL-60(TB) leukemia, 3.25 µM; in the experiment on HT29 colon, over 54.4 µM. The TGI in the experiment with IGROV1 ovarian is 53.6 µM; in the experiment on LOX IMVI melanoma, 20.5 µM; in the experiment on MALME-3M melanoma it was 53.3 µM; in the experiment with MCF7 breast, 30.6 µM; in the experiment with MOLT-4 leukemia it was 4.13 µM; in the experiment on OVCAR-3 ovarian it was 33.7 µM. In addition, the TGI in the experiment with OVCAR-5 ovarian is 33.9 µM; in the experiment on OVCAR-8 ovarian, over 73.6 µM; in the experiment on SF-539 CNS, 30.5 µM; in the experiment on SK-MEL-5 melanoma, 43.5 µM; with SK-OV-3 ovarian it was over 100 µM; in the experiment with SNB-75 CNS, 20.5 µM. The same compound showed a concentration for total growth inhibition (TGI) with U251 CNS of 18.7 µM.
On to `COC(=O)NCCc1[nH]nc2c1C(=O)C=C(Nc1ccccc1OC)C2=O`, for which the TGI in the experiment on A498 renal is over 100 µM; in the experiment with A549 NSCLC, over 100 µM; in the experiment with HCC-2998 colon it was 40.3 µM; in the experiment on HCT-116 colon, 38.1 µM; in the experiment on HL-60(TB) leukemia it was 52.7 µM; in the experiment on HT29 colon, over 100 µM. The TGI is 65.3 µM in the experiment with IGROV1 ovarian; 69.9 µM in the experiment with LOX IMVI melanoma; 28 µM in the experiment on MALME-3M melanoma; 38.7 µM with MCF7 breast; 55.1 µM in the experiment with MOLT-4 leukemia; over 100 µM in the experiment with OVCAR-3 ovarian. Moreover, the TGI with OVCAR-5 ovarian is over 100 µM; with OVCAR-8 ovarian it was 35.1 µM; in the experiment with SF-539 CNS, 34.4 µM; in the experiment with SK-MEL-5 melanoma, 27.1 µM; in the experiment with SK-OV-3 ovarian it was over 100 µM; with SNB-75 CNS, over 100 µM. Also, the TGI with U251 CNS amounted to 72.5 µM.
Take `C[C@H]1[C@H]2[C@H](C[C@@]3(C)C4=CC[C@H]5C(C)(C)[C@@H](OC6OCC(O)C(O)C6O)CC[C@@]56C[C@@]46CC[C@]23C)O[C@@]2(O)[C@@H]1OC(C)(C)[C@H]2O` (some centres not stated): the TGI with A498 renal came to 4.95 µM; with A549 NSCLC, 5.5 µM; in the experiment with HCC-2998 colon it was 1.45 µM; in the experiment on HCT-116 colon, 4.21 µM; in the experiment with HL-60(TB) leukemia, 28.8 µM; in the experiment on HT29 colon it was 8.97 µM. In addition, the TGI in the experiment on IGROV1 ovarian stood at 1.85 µM; in the experiment on LOX IMVI melanoma it was 6.28 µM; in the experiment on MALME-3M melanoma, 3.79 µM; with MCF7 breast, 1.72 µM; in the experiment with MOLT-4 leukemia, 24.2 µM; in the experiment with OVCAR-3 ovarian, 9.61 µM. The TGI with OVCAR-5 ovarian worked out at 11.5 µM; in the experiment with OVCAR-8 ovarian, 1.81 µM; in the experiment with SF-539 CNS it was 6.88 µM; in the experiment with SK-MEL-5 melanoma, 4.71 µM; in the experiment on SK-OV-3 ovarian, 4.55 µM; in the experiment on SNB-75 CNS it was 6 µM. In the experiment on U251 CNS, this compound came in with a TGI of 5.5 µM.
